Measured values: US20090232899A1, “Mucoadhesive nanocomposite delivery system” (priority 2004, published 2009)

Columns and labels:
[1] = low pH, simulated gastric fluid; cited from earlier work

Procedure for NIH3T3 fibroblast cells: The NIH3T3 fibroblast cells were used for cytotoxicity testing by methyl thiazol-2-YL-2,5-diphenyl tetrazolium bromide (MTT) staining. After seven days, the cell-containing samples were rinsed with serum-free media to remove the unattached cells and were transferred to a new plate. Then, 250 μl MTT solution was added to each sample and incubated for 4 hours to induce MTT formazan formation. Purple formazan was extracted with dimethyl sulfoxide (DMSO), and was used for optical density (OD) measurement with a Thermomax ELISA reader at a wavelength of 540 nm with DMSO as a blank.

Molecule	Stability under the testing conditions, compared with amoxicillin [1]	Viability of fibroblasts, ratio (%) of absorbance of sample group to group without treatment (NT) (NIH3T3 fibroblast cells) [%]
Cc1ncc([N+](=O)[O-])n1CCO [Metronidazole]	greater stability	
Chitosan		90 ± 9
